Toxic doses and inconclusive results are not listed. The calls were made as follows: active = survival T/C of 150% or more; inactive = T/C below 125% in these data.
Tested on: CD2F1 mice, L1210 leukemia ip, survival T/C
Experiment: NCI In Vivo Anticancer Drug Screen. Data for tumor model L1210 Leukemia (intraperitoneal) in CD2F1 (CDF1) mice
Details: endpoint: mean survival time, higher = longer survival
How it was run: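 Vehicle-treated tumor-bearing mice served as controls (C) for compound-treated mice (T). Reported figure is T divided by C.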

[1] = dose: 100.0 mg/kg/injection, schedule: Q01DX001 (ip), vehicle: saline with Tween-80
[2] = dose: 200.0 mg/kg/injection, schedule: Q01DX001 (ip), vehicle: saline with Tween-80
[3] = dose: 400.0 mg/kg/injection, schedule: Q01DX001 (ip), vehicle: saline with Tween-80
[4] = dose: 100.0 mg/kg/injection, schedule: Q04DX003 (ip), vehicle: saline with Tween-80
[5] = dose: 200.0 mg/kg/injection, schedule: Q04DX003 (ip), vehicle: saline with Tween-80
[6] = dose: 400.0 mg/kg/injection, schedule: Q04DX003 (ip), vehicle: saline with Tween-80
[7] = dose: 100.0 mg/kg/injection, schedule: Q01DX009 (ip), vehicle: saline with Tween-80
[8] = dose: 200.0 mg/kg/injection, schedule: Q01DX009 (ip), vehicle: saline with Tween-80
[9] = dose: 400.0 mg/kg/injection, schedule: Q01DX009 (ip), vehicle: saline with Tween-80

Measured: T/C

Cc1cc(NCCN(C(C)C)C(C)C)nc(Nc2nc3ccc(Cl)cc3[nH]2)n1
inactive: dose: 0.75 mg/kg/injection, schedule: Q01DX009 (ip), vehicle: saline with Tween-80 103 % of control | dose: 1.5 mg/kg/injection, schedule: Q01DX009 (ip), vehicle: saline with Tween-80 90 % of control | dose: 3.0 mg/kg/injection, schedule: Q01DX009 (ip), vehicle: saline with Tween-80 106 % of control | dose: 6.25 mg/kg/injection, schedule: Q01DX009 (ip), vehicle: saline with Tween-80 92 % of control | dose: 12.5 mg/kg/injection, schedule: Q01DX009 (ip), vehicle: saline with Tween-80 92 % of control | [1] 96 % of control | [2] 96 % of control | [3] 98 % of control

CC(=O)C(C(=O)Nc1ccccc1)c1cc(NS(=O)(=O)c2ccccc2)ccc1O (stereo unspecified)
inactive: [4] 102 % of control | [5] 96 % of control | [6] 91 % of control

CC(C)c1ccc(-n2cnc3c(=O)[nH]c(N)nc32)cc1
inactive: [1] 94 % of control | [2] 94 % of control | [3] 91 % of control

NC(=O)COS(=O)(=O)O
inactive: dose: 100.0 mg/kg/injection, schedule: Q01DX009 (ip), vehicle: saline 104 % of control | dose: 200.0 mg/kg/injection, schedule: Q01DX009 (ip), vehicle: saline 104 % of control | dose: 400.0 mg/kg/injection, schedule: Q01DX009 (ip), vehicle: saline 108 % of control

COC(=O)C1(C)CCCC2(C)C1CCC13OC1C1(C(C)C)OC1CC23 (stereo unspecified)
inactive: [7] 98 % of control | [8] 104 % of control | [9] 98 % of control

OC1CCCCC1CCl (stereo unspecified)
inactive: dose: 50.0 mg/kg/injection, schedule: Q01DX001 (ip), vehicle: carboxymethylcellulose (CMC) 103 % of control | dose: 100.0 mg/kg/injection, schedule: Q01DX001 (ip), vehicle: carboxymethylcellulose (CMC) 97 % of control | dose: 200.0 mg/kg/injection, schedule: Q01DX001 (ip), vehicle: carboxymethylcellulose (CMC) 97 % of control | dose: 400.0 mg/kg/injection, schedule: Q01DX001 (ip), vehicle: carboxymethylcellulose (CMC) 103 % of control

CC1CCN1Cc1ccccc1 (stereo unspecified)
inactive: dose: 12.5 mg/kg/injection, schedule: Q01DX009 (ip), vehicle: acetone 98 % of control | dose: 25.0 mg/kg/injection, schedule: Q01DX009 (ip), vehicle: acetone 98 % of control | dose: 50.0 mg/kg/injection, schedule: Q01DX009 (ip), vehicle: acetone 95 % of control

Nc1ncnc(N)c1N
inactive: [7] 112 % of control

O=C(/C(=N\N=C\c1c(O)ccc2ccccc12)c1ccccc1)c1ccccc1
inactive: [7] 93 % of control | [8] 90 % of control | [9] 92 % of control

COC1CCCCC1SCSC1CCCCC1OC (stereo unspecified)
inactive: [4] 91 % of control | [5] 87 % of control | [6] 89 % of control

CN(C)c1nc(N)c2nonc2n1
inactive: dose: 12.5 mg/kg/injection, schedule: Q01DX005 (ip), vehicle: other 97 % of control | dose: 25.0 mg/kg/injection, schedule: Q01DX005 (ip), vehicle: other 97 % of control | dose: 50.0 mg/kg/injection, schedule: Q01DX005 (ip), vehicle: other 92 % of control | dose: 100.0 mg/kg/injection, schedule: Q01DX005 (ip), vehicle: other 97 % of control | dose: 200.0 mg/kg/injection, schedule: Q01DX005 (ip), vehicle: other 95 % of control

CC(C)C(C)/C=C\C(C)C1CCC2C3=CC=C4CC(OC(=O)c5ccccc5)CCC4(C)C3=CCC21C (stereo unspecified)
inactive: dose: 50.0 mg/kg/injection, schedule: Q01DX009 (ip), vehicle: Klucel (hydroxypropylcellulose) (HPC) 93 % of control | dose: 100.0 mg/kg/injection, schedule: Q01DX009 (ip), vehicle: Klucel (hydroxypropylcellulose) (HPC) 110 % of control | dose: 200.0 mg/kg/injection, schedule: Q01DX009 (ip), vehicle: Klucel (hydroxypropylcellulose) (HPC) 96 % of control

COc1ccc(NC(=O)Nc2ccccc2OC)c(OC)c1
inactive: dose: 100.0 mg/kg/injection, schedule: Q04DX002 (ip), vehicle: saline with Tween-80 94 % of control | dose: 200.0 mg/kg/injection, schedule: Q04DX002 (ip), vehicle: saline with Tween-80 94 % of control | dose: 400.0 mg/kg/injection, schedule: Q04DX002 (ip), vehicle: saline with Tween-80 87 % of control

O=C(O)C(O)C(O)C(O)CO.[Zn+2] (stereo unspecified)
inactive: dose: 6.25 mg/kg/injection, schedule: Q01DX005 (ip), vehicle: saline with Tween-80 108 % of control | dose: 12.5 mg/kg/injection, schedule: Q01DX005 (ip), vehicle: saline with Tween-80 108 % of control | dose: 12.5 mg/kg/injection, schedule: Q04DX003 (ip), vehicle: saline 95 % of control | dose: 25.0 mg/kg/injection, schedule: Q01DX005 (ip), vehicle: saline with Tween-80 103 % of control | dose: 25.0 mg/kg/injection, schedule: Q04DX003 (ip), vehicle: saline 95 % of control | dose: 50.0 mg/kg/injection, schedule: Q04DX003 (ip), vehicle: saline 101 % of control
